Test results: patent US8771733B2, “Pharmaceutical composition containing an anti-nucleating agent” (Merck Sharp & Dohme Corp., priority 2004, dated 2014)
Counter-ions that a name gives are not always drawn.

Key:
[1] = In vitro dissolution studies with bulk drug and granules at 37° C.; type: physicochemical; conditions: dissolution times of 60 to 180 minutes
Protocol: The dissolution properties of tablets prepared in the manner described in Part A of Example 3 (i.e., tablets containing 100 mg of Compound A on a free phenol basis and 0, 5, 10 or 15 wt. % HPMC) were tested in the following manner: Two tablets containing 0, 5, 10, or 15 wt. % HPMC were added to a USP Type II dissolution vessel containing 500 mL of 0.01 N HCl (pH=2) as the dissolution medium (ambient temperature). After the tablets were allowed to sink to the bottom of the vessel, the medium was stirred at 100 rpm for 60 minutes and then at 150 rpm for up to an additional 120 minutes. Samples (5 mL) were removed from medium at 5, 10, 15, 20, 30, 60, 90 and 120 minutes and at the conclusion of the test (180 minutes). Each sample was diluted 1:1 with 50:50 (volume:volume) acetonitrile:water, and then analyzed via HPLC or W spectrophotometry to determine the concentration of Compound A in the solution. (Note: The HPLC and UV methods were determined to be equivalent; the choice of method for a particular test was based on such factors as equipment availability.)
In vitro dissolution studies similar to the study described above, but conducted with unformulated bulk Compound A K salt and formulated bulk in granules and conducted at 37° C.

[2] = Hygroscopicity (vapor sorption analysis); type: physicochemical
Protocol: Hygroscopicity data was obtained on a VTI Symmetrical Vapor Sorption Analyzer Model SGA-1. Data was collected at room temperature from 5-95% relative humidity and back, 5% relative humidity change per step. Equilibrium conditions were 0.01 weight percent change in 5 minutes with a maximum equilibration time of 180 minutes.

SMILES: Cc1nnc(C(=O)NC(C)(C)c2nc(C(=O)NCc3ccc(F)cc3)c(O)c(=O)n2C)o1 [Compound A K salt]
- enhancement in drug solubility in the presence of HPMC versus absence of HPMC [1]: 10 fold
- weight when equilibrated back down to 5% RH ([2]; 5% RH, after 95% RH): returned back to approximately its dry weight
- weight increase when equilibrated at 95% RH ([2]; 95% RH at 25° C.): 1.8%
- XRPD analysis of the material after the hygroscopicity experiment (phase) ([2]; after 5-95% RH and back): had not changed phases
